Where two headings read alike, the source gives them in different places.
Tests used:
L1210/0 = assay: Cytostatic assay, L1210/0 cells; type: cell-based, murine; conditions: for IC50: read-out: IC50 L1210/0; for CC50: L1210/0, Table 1, read-out: CC50 L1210/0
From the text: (§1) The cell lines employed were L1210/0 (a leukemia cell line), FM3A/0 (a breast cancer cell line), Cem/0 (an acute lymphoblastic leukemia cell line) and HeLa (a cervical cell line).

L1210/TK^− = assay: Cytostatic assay, thymidine kinase-deficient L1210/TK^− cells; type: cell-based, murine; conditions: for IC50: Table 6, read-out: IC50 L1210/TK^−; for CC50: L1210, Table 1, read-out: CC50 L1210/TK^−
Cem/0 = assay: Cytostatic assay, CEM/0 cells; type: cell-based, human; conditions: for IC50: Table 6, read-out: IC50 Cem/0; for CC50: Table 1, read-out: CC50 Cem/0
From the text: as §1

HeLa = assay: Cytostatic assay, HeLa cells; type: cell-based; conditions: for IC50: Table 6, read-out: IC50 HeLa
From the text: as §1

L1210.Hyor = assay: Cytostatic assay, Mycoplasma hyorhinis-infected L1210 cells
From the text: Murine leukaemia L1210/0 and human T-lymphocyte CEM/0 cells were obtained from the American Type Culture Collection (ATCC) (Rockville, Md.). Human glioblastoma U87 cells were kindly provided by Dr. E. Menue (Institut Pasteur, Paris, France). […] S. Eriksson (currently at Uppsala University, Uppsala, Sweden) and Prof A. Karlsson (Karolinska Institute, Stockholm, Sweden). […] All cells were maintained in Dulbecco's modified Eagle's medium (DMEM) (Invitrogen, Carlsbad, Calif.) with 10% foetal bovine serum (FBS) (Biochrom AG, Berlin, Germany), 10 mM Hepes and 1 mM Sodium Pyruvate (Invitrogen). Cells were grown at 37° C. in a humidified incubator with a gas phase of 5% CO2.
Monolayer cells (U87 and U87.Hyor) were seeded in 48-well microtiter plates (Nunc™, Roskilde, Denmark) at 10,000 cells/well. After 24 hours, an equal volume of fresh medium containing the test compounds was added. On day 5, cells were trypsinized and counted in a Coulter counter (Analis, Suarlée, Belgium). Suspension cells (L1210/0, L1210/TK^−, L1210.Hyor, CEM/0, CEM/TK^−) were seeded in 96-well microtiter plates (Nunc™) at 60,000 cells/well in the presence of a given amount of the test compounds. The cells were allowed to proliferate for 48 h (L1210) or 72 hours (CEM) and were then counted in a Coulter counter.
Samples were also assayed for their % retention of activity in mycoplasma infected cells.
The L1210/0 cell cultures were infected with the mycoplasma species M. hyorhinis (cells designated: L1210.Hyor).

HeLa/TK^− = assay: Cytostatic assay, HeLa/TK^− cells; type: cell-based; conditions: for IC50: Table 6, read-out: IC50 HeLa/TK^−
From the text: as §1

Cem/TK^− = assay: Cytostatic assay, thymidine kinase-deficient CEM/TK^− cells; type: cell-based, human; conditions: for IC50: Table 6, read-out: IC50 Cem/TK^−; for CC50: Table 1, read-out: CC50 Cem/TK^−
[1] = read-out: IC50 L1210.Hyor, Table 7
[2] = Mus musculus, L1210, read-out: IC50 L1210.Hyor

Structure (SMILES) | IC50 (L1210/0; Table 6) | IC50 (L1210/0; Table 7) | IC50 (L1210/TK^−) | IC50 (Cem/0) | IC50 (HeLa) | IC50(L1210.Hyor)/IC50(L1210/0) (L1210.Hyor; Table 7) | IC50 (L1210.Hyor; [1]) | IC50 (HeLa/TK^−) | IC50 (Cem/TK^−) | IC50 (L1210/0; Mus musculus, L1210/0, Table 6) | IC50 (L1210/0; Mus musculus, L1210/0, Table 7) | IC50 (L1210/TK^−; Mus musculus, L1210) | IC50 (Cem/0; Homo sapiens, CCRF-CEM) | IC50 (HeLa; Homo sapiens, HeLa) | IC50 (L1210.Hyor; [2]) | IC50 (HeLa/TK^−; Homo sapiens, HeLa) | IC50 (Cem/TK^−; Homo sapiens, CEM-TK(-)) | CC50 (L1210/0; Mus musculus) | CC50 (L1210/TK^−; Mus musculus) | CC50 (Cem/0; Homo sapiens, CCRF-CEM) | also measured
CCCCCOC(=O)C(NP(=O)(OCC1OC(n2cc(F)c(=O)[nH]c2=O)CC1O)Oc1cccc2ccccc12)C(C)CC (mixture of isomers) [Nap Pnt Ile] | 220 ± 120 nM | 420 ± 21 nM | 12000 ± 2000 nM | 460 ± 110 nM | 300 ± 20 nM | 1.67 | 700 ± 74 nM | 11000 ± 1000 nM | 17000 ± 1000 nM |  |  |  |  |  |  |  |  |  |  |  | 
CCCCCOC(=O)C(Cc1ccccc1)NP(=O)(OCC1OC(n2cc(F)c(=O)[nH]c2=O)CC1O)Oc1cccc2ccccc12 (mixture of isomers) [Nap Pnt Phe] | 26 ± 1 nM | 30 ± 3.9 nM | 2900 ± 1200 nM | 100 nM | 40 nM | 4.67 | 140 ± 7 nM | 6600 ± 500 nM | 8300 ± 1000 nM |  |  |  |  |  |  |  |  |  |  |  | 
CCC(C)C(NP(=O)(OCC1OC(n2cc(F)c(=O)[nH]c2=O)CC1O)Oc1ccccc1)C(=O)OCc1ccccc1 (mixture of isomers) [Ph Bn Ile] | 76 ± 22 nM | 980 ± 390 nM | 1100 ± 100 nM | 1000 ± 100 nM | 710 ± 150 nM | 2.2 | 2200 ± 31 nM | 25000 ± 11000 nM | 30000 ± 10000 nM |  |  |  |  |  |  |  |  |  |  |  | 
C[C@H](NP(=O)(OC[C@H]1O[C@@H](n2cc(F)c(=O)[nH]c2=O)CC1O)Oc1cccc2ccccc12)C(=O)OC1Cc2ccccc2C1 (stereo partly drawn) [CPF597, 5-Fluoro-2′-deoxyuridine-5′-O-[1-naphthyl-(2-indanoxy-L-alaninyl)]phosphate] |  |  |  |  |  | 1.08 |  |  |  | 21 ± 2 nM | 39 ± 19 nM | 40000 nM | 79 ± 18 nM | 100 ± 60 nM | 42 ± 40 nM | 7100 ± 2100 nM | 1000 ± 200 nM |  |  |  | 
COC(=O)[C@H](C)NP(=O)(OC[C@H]1O[C@@H](n2cc(F)c(=O)[nH]c2=O)CC1O)Oc1ccccc1 (stereo partly drawn) [CPF 382, 5-Fluoro-2′-deoxyuridine-5′-O-[phenyl(methoxy-L-alaninyl)] phosphate, reference compound] |  |  |  |  |  | 22 |  |  |  | 22 ± 7 nM | 40 ± 16 nM | 41000 ± 3000 nM | 700 ± 370 nM | 280 ± 140 nM | 870 ± 280 nM | 4700 ± 400 nM | 35000 ± 12000 nM | 25.5 nM | 37800 nM | 346 nM | CC50 (Cem/TK^−; Homo sapiens, CEM-TK(-)): 32700 nM
CCOC(=O)[C@H](C)NP(=O)(O)OCC1OC(n2cc(F)c(=O)[nH]c2=O)CC1O (stereo partly shown) [CPF 437, reference compound] |  |  |  |  |  |  |  |  |  |  |  |  |  |  |  |  |  | 36000 ± 5000 nM | > 100000 nM | > 100000 nM | CC50 (HeLa; Homo sapiens, HeLa, Table 1, read-out: CC50 HeLa): > 100000 nM; CC50 (HeLa/TK^−; Homo sapiens, HeLa, Table 1, read-out: CC50 HeLa/TK^−): > 100000 nM; CC50 (Cem/TK^−; Homo sapiens, CEM-TK(-)): > 100000 nM

From US10993957B2 (NuCana plc, priority 2011, dated 2021)
